Where two headings read alike, the source gives them in different places.
Assays:
[1] = tested on: electrically induced convulsions (MES) in rats; assay: maximal electroshock seizure test (MES), rats, oral; assay type: in vivo, rat; details: for ED50: Rattus norvegicus, oral administration, read-out: ED50 (median effective dose) in the MES model; for N/F (fraction of rats responded): MES
Source text: (§1) The first model, the maximal electroshock seizure test (MES), is used to show efficacy for antiepileptic agents against partial and generalized seizure type epilepsy, the common epilepsy among therapy resistant epileptic patients. The second model, the subcutaneous metrazole test (scMet) measures seizure threshold and is a standard screening procedure to show efficacy for agents against seizure threshold and absence seizures.

rats [2] = assay: neurotoxicity, gait and stance test, rats, po; details: for protective index or safety of margin TD50/ED50: TD50 / MES ED50
Protocol: (§2) Neurotoxicity of the claimed agents was assessed in mice (ip. administration) in the rotorod ataxia test and in rats (po. administration) in the gait and stance test which assesses minimal neurotoxicity. The term qauntitating the neurotoxicity is the median neurological toxic dose (TD50).
The protective index (PI) is defined as the ratio of TD50 and ED50 (PI=TD50/ED50). The PI is used to show a useful separation between neurotoxicity and antiepileptic activity. The larger the PI, the better the separation between neurotoxicity and efficacious doses.

[3] = tested on: electrically induced convulsions (MES) in mice; assay: maximal electroshock seizure test (MES), mice, ip; assay type: in vivo; details: Mus musculus, ip administration, read-out: ED50 in the MES model
Source text: as §1

[4] = tested on: chemically induced convulsions (scMet) in mice; assay: subcutaneous metrazole test (scMet), mice, ip; assay type: in vivo; details: Mus musculus, read-out: ED50 in the scMet model
Source text: as §1

[5] = tested on: tactile allodynia in SNL rats; assay: rat spinal nerve ligation (SNL) model for neuropathic pain, von Frey filaments; assay type: in vivo
Protocol: Experiments were performed on male Sprague-Dawley rats (Harlan laboratories, Jerusalem, Israel) weighing 175–200 g. The mechanical sensitivity (tactile allodynia) of the foot was quantified by the occurrence of foot withdrawal in response to normally innocuous mechanical stimuli using nine different von Frey filaments (VFF) ranging from 0.6 to 26 g. The rats were placed on a metal mesh floor covered with a transparent plastic dome and a period of acclimatization was allowed prior to testing. VFF were applied from underneath the mesh floor to the plantar surface of the foot. Each trial consisted of repeated applications of each of the VFFs in an ascending order for 5 times, each for a period of 1 s. If the rat withdrew the foot at least 3 times out of 5 at a specific VFF no further ascending filaments were tested and this filament was considered as a withdrawal threshold (response). Mechanical stimulus trials with the series of ascending VFF were repeated 2 times for a given time point. The repeated measurements were averaged and taken as the paw withdrawal threshold on a given time point.
For drug testing, the effect on neuropathic pain was measured 5–6 days following operation. Rats responding to mechanical stimuli of 10 g or less (in the operated leg) were eligible for the study.
The procedure of ligation and cut of the spinal nerves for induction of neuropathic pain was performed as previously described by Sheen and Chung (Sheen, K. and Chung, J. M., Signs of neuropathic pain depend on signals from injured nerve fibers in a rat model, Brain Research 610: 62–68 (1993)). Briefly, under ketamine-xylazine anaesthesia rats were placed in a prone position and the left paraspinal muscles were separated from spinous processes at the L4-S2 level. Part of the L6 transverse process was removed and the L4–L6 spinal nerves were identified. The L5–L6 spinal nerves were isolated and tightly ligated and cut, distal to the dorsal root ganglion and proximal to the formation of the sciatic nerve. Following complete […] the wound was sutured.
For all the studies, appropriate amounts of the tested compound were suspended in 0.5% methylcellulose to a volume of 4 mL/kg body weight. TMC-Urea and methylcellulose (MC, vehicle) were administered intraperitoneally (i.p) to rats at postoperative days 7, 14 and 21 in a double blind randomized crossover manner.
Rats that obtained threshold of 15 g and above, back to pre-operation baseline, were regarded free of tactile allodynia.
Median effective dose (ED50) and its 95% confidence intervals were calculated using the pharmacodynamic software package WinNonlin, version 4.0.1 (SCI Software, Lexington, Ky., U.S.A.).
Threshold data from VFF testing are presented as actual threshold (absolute) in grams and as percent of absolute responders.
For statistical analyses the nonparametric two-tailed Mann-Whitney U was used. A p value less than 0.05 was considered significant.

[6] = tested on: chemically induced convulsions (scMet) in rats; assay: subcutaneous metrazole test (scMet), rats, oral; assay type: in vivo, rat; details: for ED50: Rattus norvegicus, po, read-out: ED50 in the scMet model; for N/F (fraction of rats responded): scMET
Source text: as §1

[7] = tested on: animal models of epilepsy; details: cited from earlier work
[8] = tested on: electrically induced convulsions (MES) in rats; details: literature comparison; cited from earlier work
mouse model = details: cited from earlier work
[9] = tested on: electrically induced convulsions (MES) in mice; details: literature comparison; cited from earlier work
[10] = neurotoxicity, rotorod ataxia test, mice, ip; details: mouse, in vivo
Protocol: as §2

[11] = tested on: chemically induced convulsions (scMet) in rats; details: literature comparison, inactive at 250 mg/kg; cited from earlier work
rats [12] = details: comparison values; cited from earlier work

## CN(C)C(=O)NC(=O)C1C(C)(C)C1(C)C [II, 1,1-N,N-dimethyl-2,2,3,3-tetramethylcyclopropanecarbonyl urea]
[1]
  ED50: 87 mg/kg
Rats [2]; oral, doses up to 500 mg/kg
  neurotoxicity: no neurotoxicity

## CC1(C)C(C(=O)NC(N)=O)C1(C)C [Compound I, N-2,2,3,3-tetramethylcyclopropanecarbonyl urea]
[3]
  ED50: 90 mg/kg
[4]
  ED50: 125 mg/kg
[1]; dose 10 mg/kg
  N/F (fraction of rats responded): 0/8
[1]; dose 20 mg/kg
  N/F (fraction of rats responded): 4/8
[1]; dose 40 mg/kg
  N/F (fraction of rats responded): 5/8
[1]; dose 80 mg/kg
  N/F (fraction of rats responded): 7/8
[1]
  ED50: 29.4 mg/kg
[5]; 20 mg/kg ip
  Allodynic response, Total responders: 0/9
[5]; 20 mg/kg ip, 30 min
  Allodynic response (number of rats responded/total number of rats): 0/9
[5]; 20 mg/kg ip, 60 min
  Allodynic response (number of rats responded/total number of rats): 0/9
[5]; 20 mg/kg ip, 120 min
  Allodynic response (number of rats responded/total number of rats): 0/9
[5]; 20 mg/kg ip, 180 min
  Allodynic response (number of rats responded/total number of rats): 0/9
[5]; 20 mg/kg ip, 240 min
  Allodynic response (number of rats responded/total number of rats): 0/9
[5]; 60 mg/kg ip
  Allodynic response, Total responders: 0/9
[5]; 60 mg/kg ip, 30 min
  Allodynic response (number of rats responded/total number of rats): 0/9
[5]; 60 mg/kg ip, 60 min
  Allodynic response (number of rats responded/total number of rats): 0/9
[5]; 60 mg/kg ip, 120 min
  Allodynic response (number of rats responded/total number of rats): 0/9
[5]; 60 mg/kg ip, 180 min
  Allodynic response (number of rats responded/total number of rats): 0/9
[5]; 60 mg/kg ip, 240 min
  Allodynic response (number of rats responded/total number of rats): 0/9
[5]; 120 mg/kg ip
  Allodynic response, Total responders: 3/9
[5]; 120 mg/kg ip, 30 min
  Allodynic response (number of rats responded/total number of rats): 0/9
[5]; 120 mg/kg ip, 60 min
  Allodynic response (number of rats responded/total number of rats): 1/9
[5]; 120 mg/kg ip, 120 min
  Allodynic response (number of rats responded/total number of rats): 3/9
[5]; 120 mg/kg ip, 180 min
  Allodynic response (number of rats responded/total number of rats): 3/9
[5]; 120 mg/kg ip, 240 min
  Allodynic response (number of rats responded/total number of rats): 3/9
[5]; 180 mg/kg ip
  Allodynic response, Total responders: 3/7
[5]; 180 mg/kg ip, 30 min
  Allodynic response (number of rats responded/total number of rats): 0/7
[5]; 180 mg/kg ip, 60 min
  Allodynic response (number of rats responded/total number of rats): 1/7
[5]; 180 mg/kg ip, 120 min
  Allodynic response (number of rats responded/total number of rats): 3/7
[5]; 180 mg/kg ip, 180 min
  Allodynic response (number of rats responded/total number of rats): 3/7
[5]; 180 mg/kg ip, 240 min
  Allodynic response (number of rats responded/total number of rats): 3/7
[5]; 240 mg/kg ip
  Allodynic response, Total responders: 9/10
[5]; 240 mg/kg ip, 30 min
  Allodynic response (number of rats responded/total number of rats): 0/10
[5]; 240 mg/kg ip, 60 min
  Allodynic response (number of rats responded/total number of rats): 2/10
[5]; 240 mg/kg ip, 120 min
  Allodynic response (number of rats responded/total number of rats): 8/10
[5]; 240 mg/kg ip, 180 min
  Allodynic response (number of rats responded/total number of rats): 8/10
[5]; 240 mg/kg ip, 240 min
  Allodynic response (number of rats responded/total number of rats): 8/10
[5]; Rattus norvegicus, ip, 2 h, i.p., at 120 min post-dose, read-out: ED50 (antiallodynic, rats free of tactile allodynia)
  ED50: 171 mg/kg
[5]; i.p., significant reduction at 120 to 240 min at 120-240 mg/kg
  effect on tactile allodynia: decreased tactile allodynia in a dose-dependent manner
[6]
  ED50: 91.8 mg/kg
[6]; dose 25 mg/kg
  N/F (fraction of rats responded): 1/8
[6]; dose 50 mg/kg
  N/F (fraction of rats responded): 3/8
[6]; dose 100 mg/kg
  N/F (fraction of rats responded): 3/8
[6]; dose 200 mg/kg
  N/F (fraction of rats responded): 6/8
[6]; dose 400 mg/kg
  N/F (fraction of rats responded): 8/8
Rats [2]
  protective index or safety of margin TD50/ED50: 18.5
Rats [2]; oral administration
  TD50 (median neurological toxic dose): 538 mg/kg

## CNC(=O)C1C(C)(C)C1(C)C [M-TMCD, N-methyl 2,2,3,3-tetramethylcyclopropane carboxamide]
[7]
  anticonvulsant potency relative to VPA: approximately 10 times
[8]
  ED50 in rat-MES: 82 mg/kg
Mouse model; mouse, in vivo
  teratogenicity: not teratogenic
[9]
  ED50 in mice-MES: 99 mg/kg
Rats [2]
  protective index or safety of margin TD50/ED50: 2

## CC1(C)C(C(=O)Nc2nnc(S(N)(=O)=O)s2)C1(C)C [Compound VI, 5-(2,2,3,3-tetramethylcyclopropanecarbonylamido)-1,3,4-thiadiazole-2-sulfonamide]
[3]
  ED50: 16 mg/kg

## CC1(C)C(C(N)=O)C1(C)C [tetramethylcyclopropane carboxamide]
Mouse model; mouse model
  teratogenicity: not teratogenic

## CONC(=O)C1C(C)(C)C1(C)C [Compound V, N-methoxy-2,2,3,3-tetramethylcyclopropane carboxamide]
[3]
  ED50: 115 mg/kg
[4]
  ED50: 74 mg/kg
[10]
  TD50: 166 mg/kg
[6]
  ED50: 35 mg/kg

## CC1(C)C(C(=O)NCC(N)=O)C1(C)C [TMC glycinamide, N-2,2,3,3-tetramethylcyclopropyl carbonyl-glycinamide]
[11]
  ED50 in the scMet model: > 250 mg/kg
[8]
  ED50 in rat-MES: 82 mg/kg
Rats [12]
  TD50 (median neurological toxic dose): above 500 mg/kg
[9]
  ED50 in mice-MES: 173 mg/kg
Rats [2]
  protective index or safety of margin TD50/ED50: > 6.1
